From US12486255B2, “Modulators of RAS GTPase” (Tosk, Inc., priority 2018, dated 2025)
Like-named read-outs stand apart in the source and are kept apart here.

How the values were obtained:
[1] = test system: phosphorylated ERK 1/2 (T202/Y204); experiment: Phosphorylated ERK bioassay (Western blot, SW480 cells); assay type: cell-based, human; settings: 3 μM, 24 hours, in the presence of serum
Method: As described herein, the main downstream target for kRAS is ERK (Samatar et al., Targeting RAS-ERK signaling in cancer: promises and challenges. Nat Rev Drug Discov. 2014; 13:928-42). kRAS activates ERK leading to phosphorylated ERK. A compound that suppresses kRAS activity is expected to lower phosphorylated ERK.
Test articles abrogate the expression of phosphorylated ERK (T202/Y204) SW480 cells were subjected to test article incubation at 3 μM for 24 hours in the presence of serum to mimic natural growth environment. Cells were extracted and total protein of samples normalized through BCA assay. Processed extracts were subjected to SDS-PAGE/Western blot and blotted for phosphorylated ERK 1/2 (T202/Y204); ERK 1/2; and α-Tubulin.
The compound U0126 in FIG. 8 is a MEK inhibitor which is known to suppress phosphorylation of ERK. The compound was tested along with the test articles to serve as a positive control.

[2] = test system: flies expressing G12V in their wing; experiment: Fly assay, wing phenotype reversal; assay type: in vivo, Drosophila
Text: Each wing from mutant flies receiving treatment with either water or compound received a score from two independent scorers according to the scheme outlined in the schematic. The analysis of the scores given to the compound group was compared to the scores given for the control (water) group.
Embryo preparation. GAL4 virgin ♀ were collected over a period of 3-5 days, then crossed with kRAS G12V (3M) ♂ inside a plastic condo supplied with grape agar containing yeast paste. Flies were acclimated for 2 days and embryos present after a span of 4-5 hours were collected along with the agar plate and incubated for 24 hours. The next day, embryos were washed off the agar plate with Embryo Wash solution (120 mM NaCl, 0.03% Triton X) and resuspended in Embryo Inoculation solution (120 mM NaCl, 420 mM Sucrose, 0.05% Triton X-100). Embryos were counted and diluted to 15 embryos/10 μL. 150 embryos (100 μL) were dispensed into each vial.
Food-drug admix preparation. Each fly vial contains 1.5 g of fly food in 4 ml water. The quantity of drug needed is calculated for a total of 4 vials, each vial containing 10 μM of Structure 2. This is equivalent to 0.014 mg of Structure 2/vial, for a total of 0.056 mg of Structure 2.
A stock solution of 0.1 mg/mL Structure 2 in ethanol is prepared. A 500-ml round bottom flask is charged with 6 g of fly food (1.5 g×4), to which is added 20 mL of ethanol, ensuring that the food is entirely covered in solvent. To this heterogeneous solution is added an appropriate amount of Structure 2 stock solution, containing the calculated required quantity, in this case 0.56 mL stock solution.
The ethanol is evaporated under reduced pressure via a rotary evaporator equipped with a bump trap. The resulting dry food is added to three vials, each containing 1.5 g, so that the experiment is performed in triplicate. The quantity is calculated initially for 4 vials, because some food will be stuck to the walls of the round bottom flask and some is also invariably lost in the bump trap during the solvent evaporation step. Control vials lacking Structure 2 or Structure 3 are also analyzed and undergo the exact same food preparation and solvent extraction procedure.
Embryo addition to vials. After all the food-drug admix is prepared and added to the respective vials, to each vial is added 4 mL of water and the vial briefly vortexed. To this liquid mixture is added the embryo solution (100 μL), the vials capped and placed in an incubator or fly room.
Wing mounting and scoring. Flies hatch 10-12 days after the above experimental setup is performed. The resulting adult flies are submerged in a 3:1 70% ethanol:glycerol solution for 24 hours, then wings are dissected with curved Vannas spring scissors (FST #15001-08). The wings are mounted in an 80% glycerol solution on a microscope slide under coverslip seal.
Pictures of the wings were taken using an Accu-Scope microscope equipped with a digital camera and connected to a laptop containing the Accu-Scope Micrometric SE Premium software. The wings were scored according to the following scoring tree:
Wing score analysis. After each wing received a score from two independent scorers, the analysis of the scores given to the Structure 2 and 3 groups was compared to the scores given for the control group and was performed using the IBM SPSS software.
Wings that received a score of 3 or above are considered “reversed”, since their phenotype is closer to WT than to kRAS G12V bearing Drosophila. The findings are plotted in FIG. 9. […]

[3] = Pharmacokinetic study in mice; assay type: in vivo; settings: ip, 10 mg/kg, CD-1 mice, 10 mg/kg; for Vd/F: CD-1, mouse, read-out: Vz/F
Method: Pharmacokinetic studies were carried out using 10 weeks old CD-1 mice. Structure 2 and Structure 3 were injected ip, 3 mg/kg and 10 mg/kg, respectively, at 8 time points (0, 0.25, 0.5, 1, 2, 4, 8 and 24 hours post-dose). Blood was collected from 3 animals/time point and concentrations of Structure 2 in plasma determined using LC/MS.

[4] = Multi-day safety study in mice; assay type: in vivo; settings: female CD1 mice, 10 mg/kg ip daily for 6 days
Method: The multi-day safety study used female, 10 week old, CD1 mice (4/treatment group) dosed with DMSO. Mice were administered 2 mg/kg of Structure 2 or 10 mg/kg Structure 3, ip, daily for 6 days and evaluated for changes clinical chemistry values, hematology values and animal weight as well as signs of health and grooming habits.
Heparinized blood samples were obtained by retro-orbital puncture on Day 6, 12 hours after the last dose of Structure 2. The plasma harvested from the blood was analyzed for standard clinical chemistry parameters (ALB. ALP, ALT, AMY, TBIL, BUN, CA, PHOS, CRE GLU, NA, K, TP & GLOB) and hematology (WBC, LYM, MON, GRA, RBC, HGB, HCT, MCV, MCH, MCHC, RDWc, PLT, PCT, MPV, PDWc) analytes (see definitions herein). Animal weight changes were also monitored. Values for all analytes were analyzed by one way ANOVA plus post-hoc Bonferroni using SPSS (IBM, Armonk, NY).

c1ccc(-n2cc(CN3CCN(c4ncnc5ccccc45)CC3)cn2)cc1 [Structure 3, 4-(4-((1-phenyl-1H-pyrazol-4-yl)methyl)piperazin-1-yl)quinazoline]
phosphorylated ERK (T202/Y204) [1]: dramatically decrease phosphorylated ERK
wing scores compared to the control group ([2]; Tukey HSD and LSD p<0.001, Mann Whitney p=0.002): significantly different from the control group
Reversal Phenotype (%) ([2]; wings with score of 3 or above, Structure 2 at 10 μmolar, control 8.27): 16%
Vd/F ([3]; plasma, plasma): 3.19 L/kg
Vd/F ([3]; plasma, plasma, text statement): > 3 L/kg
mean resident times (MRT) [3]: approximately one to two
AUCINF ([3]; plasma): 4.12 (Microgram * Hour)/mL
AUC_%Extrap ([3]; plasma): 4.92%
AUClast ([3]; plasma): 3.92 (Microgram * Hour)/mL
CI/F ([3]; plasma): 4.04 mL/min/kg
Concentrationmax ([3]; plasma): 3.38 Microgram/mL
Lambda_z ([3]; plasma): 0.76 h⁻¹
MRTINF ([3]; plasma): 1.25 h
MRTlast ([3]; plasma): 1.03 h
Timelast ([3]; plasma): 4.00 h
concentration at 4 Hour ([3]; mouse, plasma, read-out: Concentrationlast): 150 ng/mL
body weight or grooming habits versus dosing vehicle treated animals [4]: no statistically significant difference
clinical chemistry changes versus dosing vehicle treated animals [4]: no significant clinical chemistry changes
ALB ([4]; Day 6): 4.0 ± 0.10 g/dL
ALP ([4]; Day 6): 106.3 ± 21.40 U/L
ALT ([4]; Day 6): 77.3 ± 16.30 U/L
AMY ([4]; Day 6): 932.0 ± 98.90 U/L
BUN ([4]; Day 6): 22.0 ± 5.40 mg/dL
CRE ([4]; Day 6): <0.40 mg/dL
Ca^++ ([4]; Day 6): 9.7 ± 0.10 mg/dL
GLOB ([4]; Day 6): 1.2 ± 0.10 g/dL
GLU ([4]; Day 6): 309.0 ± 45.10 mg/dL
GRA ([4]; Day 6): 0.4 ± 0.20 10^9/l
GRA (%) ([4]; Day 6): 7.0 ± 3.00%
HCT ([4]; Day 6): 43.1 ± 1.80%
HGB ([4]; Day 6): 14.1 ± 0.50 g/dL
K^+ ([4]; Day 6): 4.6 ± 0.20 mmol/L
LYM ([4]; Day 6): 4.6 ± 1.40 10^9/l
LYM (%) ([4]; Day 6): 90.0 ± 4.30%
MCH ([4]; Day 6): 16.0 ± 0.70 pg
MCHC ([4]; Day 6): 32.7 ± 2.50 g/dL
MCV ([4]; Day 6): 49.3 ± 4.30 fL
MON ([4]; Day 6): 0.2 ± 0.20 10^9/l
MON (%) ([4]; Day 6): 3.1 ± 2.00%
MPV ([4]; Day 6): 6.7 ± 0.40 fL
NA^+ ([4]; Day 6): 147.8 ± 2.20 mmol/L
PCT ([4]; Day 6): 0.4 ± 0.10%
PDWc ([4]; Day 6): 30.0 ± 1.50%
PHOS ([4]; Day 6): 9.8 ± 0.40 mg/dL
PLT ([4]; Day 6): 578.8 ± 86.70 10^9/l
RBC ([4]; Day 6): 8.8 ± 0.50 10^12/l
RDWc ([4]; Day 6): 17.4 ± 0.70%
TBIL ([4]; Day 6): 0.4 ± 0.00 mg/dL
TP ([4]; Day 6): 5.2 ± 0.20 g/dL
WBC ([4]; Day 6): 5.2 ± 1.80 10^9/l
